The target of one experiment is T1, h-e5′NT (Homo sapiens, UniProt P21589).
T1 construct: made in house; host or cells: COS-7 cells, transiently transfected; sonicated extract / membrane fraction
T1 sequence (P21589 27-574): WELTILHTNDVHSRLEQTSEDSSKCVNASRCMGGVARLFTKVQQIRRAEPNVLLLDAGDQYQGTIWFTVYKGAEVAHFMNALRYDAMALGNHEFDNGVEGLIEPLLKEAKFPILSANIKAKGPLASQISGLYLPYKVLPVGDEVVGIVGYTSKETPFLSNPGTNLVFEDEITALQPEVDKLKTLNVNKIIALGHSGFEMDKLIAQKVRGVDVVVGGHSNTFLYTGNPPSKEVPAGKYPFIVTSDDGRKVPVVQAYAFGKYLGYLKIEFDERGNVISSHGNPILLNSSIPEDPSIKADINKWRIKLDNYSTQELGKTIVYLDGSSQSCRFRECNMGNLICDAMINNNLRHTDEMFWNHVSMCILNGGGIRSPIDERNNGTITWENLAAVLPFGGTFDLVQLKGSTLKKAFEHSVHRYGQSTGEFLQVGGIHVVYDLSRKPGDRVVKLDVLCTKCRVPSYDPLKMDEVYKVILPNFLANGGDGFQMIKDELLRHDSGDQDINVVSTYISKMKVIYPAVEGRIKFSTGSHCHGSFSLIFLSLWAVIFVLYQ
The experiment in a line: Ecto-5′-nucleotidase inhibition assay (capillary electrophoresis), human enzyme. It is filed as biochemical. To be noted: for IC50 / inhibition at 100 µM: mean ± s.e.m., n = 3; for IC50: substrate AMP 500 µM; for inhibition at 100 µM: compound at 0.1 mM, read-out: h-e5′NT percentage inhibition ± s.e.m.; for inhibitory potential toward h-e5′NT after initial screening: initial screening at 0.1 mM. How it is done: (§1) The plasmids expressing e5′NT, either rat or human, were used to transfect the COS-7 cells through lipofectamine. The confluent cells were allowed to incubate in DMEM/F-12 having plasmid DNA (6 µg) and transfecting reagent (24 µl) for 5 h at ambient temperature (37°C). To discontinue transfection, a specified volume of DMEM/F-12 was added, containing FBS (20%). These cells were then harvested after 2–3 days.
(§2) The transfected cells were separated from harvesting buffer (45 mM Tris buffer, 95 mM NaCl, and 0.1 mM PMSF, pH 7.5) through scraping, followed by washing with Tris buffer and then allowed to centrifuge by spinning at 300 r.p.m. at 4°C for 5 min [30]. Finally, the cells remained suspended in harvesting buffer solution containing aprotinin (10 µg ml^−1). As a result of sonication, the produced cellular debris was removed by cold centrifugation operated at 300 r.p.m. for 10 min. Glycerol (7.5%) was mixed with the resultant supernatant. The Bradford microplate assay was employed for estimation of protein concentration where albumin was used as a standard.
(§3) The e5′NT inhibition assay was performed with respect to our previously described procedure on P/ACE MDQ capillary electrophoresis system (Beckman Instruments, Fullerton, CA, USA) provided with UV detection system. The samples were prepared in the assay buffer (1 mM CaCl2, 10 mM Tris HCl and 2 mM MgCl2, pH 7.4) and analysed at 0.1 mM concentration. The total assay volume (100 µl) comprises sample (10 µl), 10 µl of h-e5′NT (6.94 µg ml^−1) protein extract or r-e5′NT (7.17 µg ml^−1) and 70 µl of assay buffer. The above mixture was allowed to incubate at 37°C for 10 min. Subsequently, biochemical reaction was started with the addition of substrate (10 µl) and AMP (500 µM). The mixture was incubated again for 30 min at 37°C. The enzyme-substrate reaction was stopped by thermal denaturation for the duration of 20 min by placing the mixture in a water bath at 99°C. Then, 50 µl of obtained mixture was filled into CE mini vials and injected with 0.5 psi into the capillary in 5 s, whereas 15 kV was set to split-up substrate and product peaks. […] Therefore, successive dilution of each active compound was made and different inhibitor concentrations were assayed to obtain the dose–response curve against both enzymes. All experiments were conducted thrice. The nonlinear regression analysis program (PRISM 5.0) was employed to calculate IC50 value.

The next experiment addresses T2, r-e5′NT (Rattus norvegicus, UniProt P21588).
T2 construct: made in house; host or cells: COS-7 cells, transiently transfected; sonicated extract / membrane fraction
T2 sequence (P21588 29-576): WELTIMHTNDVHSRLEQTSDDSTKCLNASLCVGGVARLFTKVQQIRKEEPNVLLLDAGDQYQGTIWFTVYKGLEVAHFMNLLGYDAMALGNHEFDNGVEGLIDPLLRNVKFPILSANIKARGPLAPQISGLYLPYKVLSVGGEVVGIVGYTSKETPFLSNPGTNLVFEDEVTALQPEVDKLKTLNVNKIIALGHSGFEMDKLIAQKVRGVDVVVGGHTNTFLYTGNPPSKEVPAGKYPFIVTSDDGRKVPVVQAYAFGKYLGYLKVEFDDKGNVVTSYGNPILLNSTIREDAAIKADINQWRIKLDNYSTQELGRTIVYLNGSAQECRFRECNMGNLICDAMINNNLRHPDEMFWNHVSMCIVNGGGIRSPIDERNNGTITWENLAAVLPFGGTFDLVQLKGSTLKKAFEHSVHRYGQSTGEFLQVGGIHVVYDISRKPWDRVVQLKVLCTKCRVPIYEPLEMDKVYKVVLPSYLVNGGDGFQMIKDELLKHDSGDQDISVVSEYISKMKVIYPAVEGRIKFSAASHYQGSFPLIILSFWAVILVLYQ
The experiment in a line: Ecto-5′-nucleotidase inhibition assay (capillary electrophoresis), rat enzyme. In kind it is biochemical. To be noted: for IC50 / inhibition at 100 µM: mean ± s.e.m., n = 3; for IC50: substrate AMP 500 µM; for inhibition at 100 µM: compound at 0.1 mM, read-out: r-e5′NT percentage inhibition ± s.e.m.; for inhibitory potential toward r-e5′NT after initial screening: initial screening at 0.1 mM. As to the method:
as §1, §2, §3

Turning to `CC(=O)c1sc(N/N=C/c2cccnc2)nc1C` [3a, (E)-1-(4-methyl-2-(2-(pyridin-3-ylmethylene)hydrazinyl)thiazol-5-yl)ethanone], the figures for the IC50 at h-e5′NT and at r-e5′NT were 0.32 ± 0.03 µM and 7.81 ± 0.89 µM, respectively. At h-e5′NT (ratio of IC50 r-e5′NT / h-e5′NT), the “potency against h-e5′NT relative to r-e5′NT” value is 24 fold. Besides, on h-e5′NT (ratio of IC50 sulfamic acid / compound), the “inhibition against h-e5′NT compared with positive control sulfamic acid” value was 132 fold.

Turning to `CC(=O)c1sc(N/N=C/c2ccc(N(C)C)cc2)nc1C` [3b, (E)-1-(2-(2-(4-(dimethylamino)benzylidene)hydrazinyl)-4-methylthiazol-5-yl)ethanone], the concentration for half-maximal inhibition (IC50) (usually the concentration at which inhibition is half-maximal) against h-e5′NT was 0.56 ± 0.07 µM; against r-e5′NT, 10.1 ± 0.58 µM.

As for `CC(=O)c1sc(N/N=C/c2ccco2)nc1C` [3c, (E)-1-(2-(2-(furan-2-ylmethylene)hydrazinyl)-4-methylthiazol-5-yl)ethanone], at h-e5′NT, the inhibition (usually how much of the control response was suppressed) at 100 µM was 38.1 ± 5.47% and the “inhibitory potential toward h-e5′NT after initial screening” value was “no inhibitory potential”. In addition, on r-e5′NT, the inhibition at 100 µM came out at 15.3 ± 2.78% and the “inhibitory potential toward r-e5′NT after initial screening” value is recorded as “no inhibitory potential”.

In the case of `CC(=O)c1sc(N/N=C/c2ccc(C)o2)nc1C` [3d, (E)-1-(4-methyl-2-(2-((5-methylfuran-2-yl)methylene)hydrazinyl)thiazol-5-yl)ethanone], at h-e5′NT, the inhibition at 100 µM came out at 43.6 ± 1.18% and the “inhibitory potential toward h-e5′NT after initial screening” value is “no inhibitory potential”. Moreover, at r-e5′NT, the inhibition at 100 µM was determined as 12.3 ± 3.91% and the “inhibitory potential toward r-e5′NT after initial screening” value is reported as “no inhibitory potential”.

Regarding `CC(=O)c1sc(N/N=C/c2ccc[nH]2)nc1C` [3e, (E)-1-(2-(2-((1H-pyrrol-2-yl)methylene)hydrazinyl)-4-methylthiazol-5-yl)ethanone], the IC50 on h-e5′NT is 3.36 ± 0.12 µM. In addition, the inhibition at 100 µM on r-e5′NT is 10.8 ± 4.25%.

`CC(=O)c1sc(N/N=C/c2cc3ccccc3[nH]2)nc1C` [3f, (E)-1-(2-(2-((1H-indol-2-yl)methylene)hydrazinyl)-4-methylthiazol-5-yl)ethanone]: on h-e5′NT, half-maximal inhibition (IC50) was put at 6.19 ± 0.32 µM. The inhibition at 100 µM on r-e5′NT came to 32.7 ± 1.62%.

For `NS(=O)(=O)O` [sulfamic acid, reference compound], the IC50 against h-e5′NT turned out to be 42.1 ± 7.8 µM; against r-e5′NT, 77.3 ± 7.01 µM.

Values taken from article PMC6170555, “Synthesis of novel (E)-1-(2-(2-(4(dimethylamino) benzylidene) hydrazinyl)-4-methylthiazol-5-yl)ethanone derivatives as ecto-5′-nucleotidase inhibitors” (Royal Society Open Science, 2018).
